Patent EP4029501A1, “COMBINATION OF POLYAROMATIC UREA DERIVATIVES AND GLUCOCORTICOID OR HDAC INHIBITOR FOR THE TREATMENT OF DISEASES OR CONDITIONS ASSOCIATED WITH MUSCLE CELLS AND/OR SATELLITE CELLS” (Anagenesis Biotechnologies, priority 2021, dated 2022)

How the values were obtained:
Type in all cases: cell-based, human
[1] = system: muscle progenitors derived from DMD hiPSC; test: Myotube assay: total myotube area per well (alpha-actinin staining); conditions: Homo sapiens, Myotube, 72 h, DMD or WT cell source not given; for Emax: efficacy, MA = normalized Myotube Area, 3 days incubation; for EC50: myogenic activity, half-maximal generation of myotubes, 10 points dose-response 1.5 nM to 30 µM, 3 days
Summary of the method: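 DMD hiPSC-derived muscle progenitors (NCRM-1 background) plated at 3500 cells/well in K5 medium with 5 µM Y-27632, then exposed to compound at 1.5 nM–30 µM for 3 days at 37°C. Cells fixed on day 7, alpha-actinin-immunostained and total myotube area per well quantified; duplicates averaged, EC50 and normalized myotube area derived.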

[2] = system: muscle progenitors derived from DMD hiPSC; test: Dose response assay of combination treatments with Givinostat or Prednisolone: total myotube area; conditions: for improvement of potency: versus alone; for potency: change in words
Description: (§1) • Figure 1 - the workflow of the myotube assay, aiming at monitoring myogenic activity of compounds and effect on satellite-like cells. • Figure 2 - the myogenic activity of compound (i) in a dose-response assay, as shown by an increase of the total myotube surface/well upon increase of compound concentration. • Figure 3 - the positive effect on satellite-like cells of compound (i) in a dose-response assay, as shown by the increase of Pax7-positive cell percentage upon increase of compound concentration. • Figure 4 - representative images for the dose-response of the total myotube area readout for compound (i), corresponding to Figure 2. • Figure 5 - representative images for the dose-response of the percentage of Pax7-positive cell readout for compound (i), corresponding to Figure 3. • Figure 6 - Dose-response curve on muscle progenitors derived from DMD hiPSC. Treatment of muscle progenitors derived from DMD hiPSC with Prednisolone or Givinostat alone inducing a beneficial effect on α-actinin expression (representative of the myotube surface) and a loss of nearly 50 % of Pax7 positive cells (representative of the population of satellite cells) in a dose-dependent manner. The highest concentration represented is 10 µM. The arrows show the point a 0.3 µM. Efficacy values correspond to the highest score of normalized myotube surface (y-axis). Activity values correspond to the half maximal effective concentration (EC50; x-axis). The curve fits were calculated using a 4-parameter logistic regression model (Graphpad PRISM software). Error bars show standard deviation (SD). The picture on the right panel is representative of the highest myotube surface value of the dose-response curve. • Figures 7-9 - Dose-response curve on muscle progenitors derived from DMD hiPSC. Treatment in a dose-dependent manner of muscle progenitors derived from DMD hiPSC with indicated compound alone or with combination with Prednisolone or Givinostat at 0.3 µM. The combination induced an improvement of myogenic capabilities seen with α-actinin expression (representative of the myotube surface) and harbor no worsening of the Pax7 positive cells (representative of the population of satellite cells) compared to Prednisolone or Givinostat alone. The highest concentration of DRC is 10 µM.
Efficacy values correspond to the highest score of normalized myotube surface (y-axis). Activity values correspond to the half maximal effective concentration (EC50; x-axis). The curve fits were calculated using a 4-parameter logistic regression model (Graphpad PRISM software). Error bars show standard deviation (SD). The picture on the right panel is representative of the highest myotube surface value of the dose-response curve.
(§2) Figure 1 provides an example of a Myotube assay workflow. At day 0, hMP are thawed and 3.1 million cells are plated into a T75-flask coated with hESC-qualified Matrigel™ (Corning) in SkGM proliferating medium (PromoCells), supplemented with 5 µM Y-27632 (Tocris Bioscience). On day 2, SkGM proliferating medium is refreshed. On day 4, hMP are harvested and transferred into a 384-well plate coated with collagen type I at a density of 3500 cells/well in a DMEM-based medium, containing 5% of knockout serum replacement (Gibco), 1% PenStrep (Gibco), 1% MEM NEAA (Gibco) and 0.1 mM 2-mercaptoethanol (Gibco) (hereafter "K5 medium") and 5 µM Y-27632. Compounds to be tested are then added in the medium and incubated for 3 days at 37°C. On day 7, cells are fixed and immunostained. For example, myotubes (alpha-actinin staining) and satellite-like (Pax7 staining) cells can be analyzed for total myotube area per well or Pax7-positive cell quantification.
DMD hMPs were put in the Myotube assay according to the workflow described in example 2.1. […]

Pax7 positive cells = test: Dose response assay of combination treatments with Givinostat or Prednisolone: percentage of Pax7-positive cells
Description: as §1, §2
DMD hMPs were put in the Myotube assay according to the workflow described in example 2.1. In particular, Prednisolone (Sigma) or Givinostat (Exclusive Chemistry) were added in all conditions at a fixed concentration equal to 0.3 µM in combination with compounds az or bw or q tested in DRC at 8 concentrations ranging from 4.5 nM to 10 µM, starting from day 4. Also, as control, DRCs with the same range of concentrations were done with Prednisolone alone, Givinostat (figure 6) alone or compounds az or bw or q alone (figures 7 to 9). […]

[3] = DRC 4.5 nM to 10 µM in combination with Givinostat at 0.3 µM
[4] = DRC 4.5 nM to 10 µM in combination with Prednisolone at 0.3 µM
[5] = in combination with Givinostat at 0.3 µM
[6] = in combination with Prednisolone at 0.3 µM

For `CC(C)(C)c1cc(NC(=O)Nc2ccc(Oc3ccnc4[nH]c(=O)cnc34)cc2F)sn1` [(q), 1-(3-(tert-butyl)isothiazol-5-yl)-3-(2-fluoro-4-((3-oxo-3,4-dihydropyrido[2,3-b]pyrazin-8-yl)oxy)phenyl)urea], the Emax [1] was 50 to 75%, the EC50 [1] was 1 to 5 µM and the total myotube surface [2, 3] was “strongly increased”. For the same molecule, the total myotube surface [2, 4] was “strongly increased”, the improvement of potency [2, 5] was 1.4 fold and the improvement of potency [2, 6] was 5 fold. The satellite cell population (Pax7 positive cells; [5]) was “maintenance of the satellite cells in all conditions” and the satellite cell population (Pax7 positive cells; [6]) was “maintenance of the satellite cells in all conditions”.

In the case of `Cc1ccc(-n2nc(C(C)(C)C)cc2NC(=O)Nc2ccc(Oc3ccnc4[nH]c(=O)cnc34)cc2C(F)(F)F)cc1` [(az), 1-(3-(tert-butyl)-1-(p-tolyl)-1H-pyrazol-5-yl)-3-(4-((3-oxo-3,4-dihydropyrido[2,3-b]pyrazin-8-yl)oxy)-2-(trifluoromethyl)phenyl)urea], the Emax [1] is reported as at least 75%, the EC50 [1] is reported as 0.5 to 1 µM and the total myotube surface [2, 3] is reported as “increased the total myotube surface”. For the same molecule, the total myotube surface [2, 4] was “increased the total myotube surface”, the improvement of potency [2, 5] was “two fold” and the improvement of potency [2, 6] was “two fold”. The satellite cell population (Pax7 positive cells; [5]) was “at least maintained” and the “satellite cell population increase” value (Pax7 positive cells; [6]) was 1.5 fold.

With `CSc1cc(Oc2ccnc3[nH]c(=O)cnc23)ccc1NC(=O)Nc1cc(C(C)(C)C)nn1-c1cccc(F)c1` [(bw), 1-(3-(tert-butyl)-1-(3-fluorophenyl)-1H-pyrazol-5-yl)-3-(2-(methylthio)-4-((3-oxo-3,4-dihydropyrido[2,3-b]pyrazin-8-yl)oxy)phenyl)urea] the Emax [1] was at least 75%, the EC50 [1] was under 0.5 µM and the total myotube surface [2, 3] was “increased the total myotube surface”. For the same molecule, the total myotube surface [2, 4] was “increased the total myotube surface”, the potency [2, 5] was “improved” and the potency [2, 6] was “slightly decreased”. The satellite cell pool (Pax7 positive cells; compound alone, DRC 4.5 nM to 10 µM) was “decrease of satellite cell pool which is only seen at high concentration”, the satellite cell population (Pax7 positive cells; [5]) was “the decrease of satellite cell pool which is only seen at high concentration of treatment with compound bw alone is slightly diminished” and the satellite cell population (Pax7 positive cells; [6]) was “the decrease of satellite cell pool which is only seen at high concentration of treatment with compound bw alone is slightly diminished”.
